Reference: ChEMBL document CHEMBL4507301 (2021)

What was measured:
[1] = target: Serine/threonine-protein kinase 32A (Homo sapiens) (UniProt Q8WU08); details: Compound concentration 1000.0 nM
[2] = target: Serine/threonine-protein kinase TNNI3K (Homo sapiens) (UniProt Q59H18); details: Compound concentration 1000.0 nM
[3] = target: Tyrosine-protein kinase receptor TYRO3 (Homo sapiens) (UniProt Q06418); details: Compound concentration 1000.0 nM
[4] = system: Epidermal growth factor receptor (Homo sapiens), P00533 [UNDEFINED MUTATION]; details: Compound concentration 1000.0 nM
[5] = target: Protein kinase C theta type (Homo sapiens) (UniProt Q04759); details: Compound concentration 1000.0 nM
[6] = target: Sodium-dependent noradrenaline transporter (Homo sapiens) (UniProt P23975); details: Compound concentration 10.0 uM
[7] = target: Ribosomal protein S6 kinase alpha-3 (Homo sapiens) (UniProt P51812); details: Compound concentration 1000.0 nM
[8] = system: Tyrosine-protein kinase ABL1 (Homo sapiens), P00519 [M351T]; details: Compound concentration 1000.0 nM
[9] = system: Tyrosine-protein kinase ABL1 (Homo sapiens), P00519 [F317I]; details: Compound concentration 1000.0 nM
[10] = target: Serine/threonine-protein kinase TAO3 (Homo sapiens) (UniProt Q9H2K8); details: Compound concentration 1000.0 nM
[11] = target: Serine/threonine-protein kinase RIO2 (Homo sapiens) (UniProt Q9BVS4); details: Compound concentration 1000.0 nM
[12] = target: Tyrosine-protein kinase receptor UFO (Homo sapiens) (UniProt P30530); details: Compound concentration 1000.0 nM
[13] = target: Dual specificity protein kinase CLK2 (Homo sapiens) (UniProt P49760); details: Compound concentration 1000.0 nM
[14] = target: SNF-related serine/threonine-protein kinase (Homo sapiens) (UniProt Q9NRH2); details: Compound concentration 1000.0 nM
[15] = target: Microtubule-associated serine/threonine-protein kinase 1 (Homo sapiens) (UniProt Q9Y2H9); details: Compound concentration 1000.0 nM
[16] = target: Proto-oncogene tyrosine-protein kinase receptor Ret (Homo sapiens) (UniProt P07949); details: Compound concentration 1000.0 nM
[17] = target: TRAF2 and NCK-interacting protein kinase (Homo sapiens) (UniProt Q9UKE5); details: Compound concentration 1000.0 nM
[18] = target: Tyrosine-protein kinase ABL2 (Homo sapiens) (UniProt P42684); details: Compound concentration 1000.0 nM
[19] = target: Cyclin-dependent kinase 3 (Homo sapiens) (UniProt Q00526); details: Compound concentration 1000.0 nM
[20] = target: Eukaryotic translation initiation factor 2-alpha kinase 1 (Homo sapiens) (UniProt Q9BQI3); details: Compound concentration 1000.0 nM
[21] = target: Dual specificity testis-specific protein kinase 1 (Homo sapiens) (UniProt Q15569); details: Compound concentration 1000.0 nM
[22] = target: Tyrosine-protein kinase BTK (Homo sapiens) (UniProt Q06187); details: Compound concentration 1000.0 nM
[23] = system: Epidermal growth factor receptor (Homo sapiens), P00533 [UNDEFINED MUTATION]; details: Compound concentration 1000.0 nM; remark: listed apart in the source
[24] = target: Macrophage colony-stimulating factor 1 receptor (Homo sapiens) (UniProt P07333); details: Compound concentration 1000.0 nM
[25] = system: Epidermal growth factor receptor (Homo sapiens), P00533 [G719C]; details: Compound concentration 1000.0 nM
[26] = target: Serine/threonine-protein kinase 38-like (Homo sapiens) (UniProt Q9Y2H1); details: Compound concentration 1000.0 nM
[27] = target: Dual specificity mitogen-activated protein kinase kinase 5 (Homo sapiens) (UniProt Q13163); details: Compound concentration 1000.0 nM
[28] = target: D(2) dopamine receptor (Homo sapiens) (UniProt P14416); details: Compound concentration 10.0 uM
[29] = system: Tyrosine-protein kinase ABL1 (Homo sapiens), P00519 [T315I]; details: Compound concentration 1000.0 nM
[30] = target: Tyrosine-protein kinase TXK (Homo sapiens) (UniProt P42681); details: Compound concentration 1000.0 nM
[31] = target: Ankyrin repeat and protein kinase domain-containing protein 1 (Homo sapiens) (UniProt Q8NFD2); details: Compound concentration 1000.0 nM
[32] = target: Myosin light chain kinase (Homo sapiens) (UniProt Q32MK0); details: Compound concentration 1000.0 nM
[33] = target: Calcium/calmodulin-dependent protein kinase kinase 1 (Homo sapiens) (UniProt Q8N5S9); details: Compound concentration 1000.0 nM
[34] = target: Serine/threonine-protein kinase ICK (Homo sapiens) (UniProt Q9UPZ9); details: Compound concentration 1000.0 nM
[35] = target: Interleukin-1 receptor-associated kinase 4 (Homo sapiens) (UniProt Q9NWZ3); details: Compound concentration 1000.0 nM
[36] = target: GABA-A receptor; anion channel (Rattus norvegicus) (UniProt O09028+P15431+P18506+P18508+P19969+P20236+P23574+P23576+P28471+P28473+P30191+P62813+P63079+P63138+Q91ZM7+Q9ES14); details: Compound concentration 10.0 uM
[37] = target: Serine/threonine-protein kinase STK11 (Homo sapiens) (UniProt Q15831); details: Compound concentration 1000.0 nM
[38] = target: Atypical kinase COQ8A, mitochondrial (Homo sapiens) (UniProt Q8NI60); details: Compound concentration 1000.0 nM
[39] = target: Cyclin-dependent kinase-like 1 (Homo sapiens) (UniProt Q00532); details: Compound concentration 1000.0 nM
[40] = target: Myosin-IIIb (Homo sapiens) (UniProt Q8WXR4); details: Compound concentration 1000.0 nM
[41] = target: Mitogen-activated protein kinase 14 (Homo sapiens) (UniProt Q16539); details: Compound concentration 1000.0 nM
[42] = target: Cyclin-dependent kinase 2 homolog (Plasmodium falciparum (isolate 3D7)) (UniProt P61075); details: Compound concentration 1000.0 nM
[43] = system: Receptor-type tyrosine-protein kinase FLT3 (Homo sapiens), P36888 [UNDEFINED MUTATION]; details: Compound concentration 1000.0 nM

Mitogen-activated protein kinase 14 (Homo sapiens), sequence (Q16539 whole entry): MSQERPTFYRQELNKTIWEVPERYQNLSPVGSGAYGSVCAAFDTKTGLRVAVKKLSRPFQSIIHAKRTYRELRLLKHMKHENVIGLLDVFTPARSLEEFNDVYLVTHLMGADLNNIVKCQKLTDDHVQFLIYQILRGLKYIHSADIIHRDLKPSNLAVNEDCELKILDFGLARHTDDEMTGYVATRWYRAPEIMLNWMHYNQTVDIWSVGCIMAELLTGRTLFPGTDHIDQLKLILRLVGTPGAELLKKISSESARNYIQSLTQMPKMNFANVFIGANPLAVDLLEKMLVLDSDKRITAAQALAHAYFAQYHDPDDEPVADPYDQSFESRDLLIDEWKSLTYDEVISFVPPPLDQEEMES
Cyclin-dependent kinase 2 homolog (Plasmodium falciparum (isolate 3D7)), sequence (P61075 whole entry): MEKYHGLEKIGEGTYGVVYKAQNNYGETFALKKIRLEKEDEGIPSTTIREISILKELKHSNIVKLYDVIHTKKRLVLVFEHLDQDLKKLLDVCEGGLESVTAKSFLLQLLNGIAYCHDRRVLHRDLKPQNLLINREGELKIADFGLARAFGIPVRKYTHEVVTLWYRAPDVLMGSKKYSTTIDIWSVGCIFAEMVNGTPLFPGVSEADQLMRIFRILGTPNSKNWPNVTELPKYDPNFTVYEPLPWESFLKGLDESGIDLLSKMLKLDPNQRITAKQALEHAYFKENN
Interleukin-1 receptor-associated kinase 4 (Homo sapiens), sequence (Q9NWZ3 whole entry): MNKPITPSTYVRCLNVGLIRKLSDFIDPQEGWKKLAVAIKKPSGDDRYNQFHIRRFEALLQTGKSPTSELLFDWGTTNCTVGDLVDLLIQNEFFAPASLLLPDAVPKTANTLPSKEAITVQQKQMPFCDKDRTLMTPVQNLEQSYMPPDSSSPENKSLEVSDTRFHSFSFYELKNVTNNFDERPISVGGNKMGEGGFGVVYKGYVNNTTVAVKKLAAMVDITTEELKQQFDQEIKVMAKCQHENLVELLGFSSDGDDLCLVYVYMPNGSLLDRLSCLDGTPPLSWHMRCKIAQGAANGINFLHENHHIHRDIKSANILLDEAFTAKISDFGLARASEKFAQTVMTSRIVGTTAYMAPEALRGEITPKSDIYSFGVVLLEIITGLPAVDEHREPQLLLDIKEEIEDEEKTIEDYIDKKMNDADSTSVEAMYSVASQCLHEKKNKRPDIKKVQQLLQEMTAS
Tyrosine-protein kinase receptor TYRO3 (Homo sapiens), sequence (Q06418 whole entry): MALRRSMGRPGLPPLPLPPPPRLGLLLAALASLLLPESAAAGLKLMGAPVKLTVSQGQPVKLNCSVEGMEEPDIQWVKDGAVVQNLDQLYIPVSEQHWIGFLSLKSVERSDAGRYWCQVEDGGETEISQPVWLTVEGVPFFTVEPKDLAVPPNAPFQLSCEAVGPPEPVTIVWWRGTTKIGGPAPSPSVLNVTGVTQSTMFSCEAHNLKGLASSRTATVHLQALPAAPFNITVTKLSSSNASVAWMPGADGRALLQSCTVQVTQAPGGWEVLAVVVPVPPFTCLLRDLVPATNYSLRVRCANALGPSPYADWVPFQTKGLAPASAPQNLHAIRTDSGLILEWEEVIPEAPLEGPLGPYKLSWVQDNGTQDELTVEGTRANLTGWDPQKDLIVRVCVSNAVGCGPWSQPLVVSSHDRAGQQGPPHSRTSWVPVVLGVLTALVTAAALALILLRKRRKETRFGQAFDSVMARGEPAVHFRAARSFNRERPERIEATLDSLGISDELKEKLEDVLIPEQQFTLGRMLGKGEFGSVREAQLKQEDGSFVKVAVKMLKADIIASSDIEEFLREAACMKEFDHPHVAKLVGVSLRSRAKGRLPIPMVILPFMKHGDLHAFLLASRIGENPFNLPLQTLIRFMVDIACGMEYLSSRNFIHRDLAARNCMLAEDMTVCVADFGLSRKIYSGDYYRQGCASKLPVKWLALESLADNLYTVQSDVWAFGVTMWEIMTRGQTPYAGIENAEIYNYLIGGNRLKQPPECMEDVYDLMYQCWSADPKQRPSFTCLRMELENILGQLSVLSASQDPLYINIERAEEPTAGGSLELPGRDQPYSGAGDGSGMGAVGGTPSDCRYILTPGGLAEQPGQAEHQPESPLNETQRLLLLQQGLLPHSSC
Serine/threonine-protein kinase 38-like (Homo sapiens), sequence (Q9Y2H1 2-464 limits assumed): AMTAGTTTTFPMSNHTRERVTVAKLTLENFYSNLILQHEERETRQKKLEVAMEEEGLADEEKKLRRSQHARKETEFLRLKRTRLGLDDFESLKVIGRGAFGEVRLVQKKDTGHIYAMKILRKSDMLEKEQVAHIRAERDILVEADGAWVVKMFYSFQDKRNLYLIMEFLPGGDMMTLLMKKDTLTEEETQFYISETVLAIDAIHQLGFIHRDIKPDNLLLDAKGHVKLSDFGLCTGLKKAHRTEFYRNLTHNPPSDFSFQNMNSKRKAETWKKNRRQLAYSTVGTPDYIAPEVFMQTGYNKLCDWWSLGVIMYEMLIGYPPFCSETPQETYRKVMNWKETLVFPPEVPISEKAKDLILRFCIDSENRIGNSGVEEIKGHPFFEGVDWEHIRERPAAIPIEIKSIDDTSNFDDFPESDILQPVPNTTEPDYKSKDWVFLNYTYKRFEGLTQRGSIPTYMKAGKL
Serine/threonine-protein kinase TAO3 (Homo sapiens), sequence (Q9H2K8 whole entry): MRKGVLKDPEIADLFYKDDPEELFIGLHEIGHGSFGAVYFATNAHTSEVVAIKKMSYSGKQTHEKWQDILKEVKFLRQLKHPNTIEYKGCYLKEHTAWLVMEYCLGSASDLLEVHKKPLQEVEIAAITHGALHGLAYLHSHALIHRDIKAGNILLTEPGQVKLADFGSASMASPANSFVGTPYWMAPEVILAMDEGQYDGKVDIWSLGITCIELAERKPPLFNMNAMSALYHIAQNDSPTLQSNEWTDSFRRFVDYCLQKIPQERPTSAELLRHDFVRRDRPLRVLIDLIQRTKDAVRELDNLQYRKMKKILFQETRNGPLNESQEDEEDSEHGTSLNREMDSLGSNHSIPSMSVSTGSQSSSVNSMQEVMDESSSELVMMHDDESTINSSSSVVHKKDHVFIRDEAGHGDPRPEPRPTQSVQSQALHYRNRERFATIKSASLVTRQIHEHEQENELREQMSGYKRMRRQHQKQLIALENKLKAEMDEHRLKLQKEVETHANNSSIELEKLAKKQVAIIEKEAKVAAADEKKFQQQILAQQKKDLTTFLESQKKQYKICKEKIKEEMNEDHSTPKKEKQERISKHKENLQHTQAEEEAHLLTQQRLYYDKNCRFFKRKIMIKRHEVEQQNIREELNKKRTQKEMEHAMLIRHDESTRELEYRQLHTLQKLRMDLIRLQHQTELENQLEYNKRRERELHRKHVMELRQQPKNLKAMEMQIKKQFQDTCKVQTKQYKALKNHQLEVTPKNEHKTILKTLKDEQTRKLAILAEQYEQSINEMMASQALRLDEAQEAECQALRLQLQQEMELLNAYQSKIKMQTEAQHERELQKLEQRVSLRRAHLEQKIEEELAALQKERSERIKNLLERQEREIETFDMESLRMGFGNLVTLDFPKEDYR
Calcium/calmodulin-dependent protein kinase kinase 1 (Homo sapiens), sequence (Q8N5S9 whole entry, looked up): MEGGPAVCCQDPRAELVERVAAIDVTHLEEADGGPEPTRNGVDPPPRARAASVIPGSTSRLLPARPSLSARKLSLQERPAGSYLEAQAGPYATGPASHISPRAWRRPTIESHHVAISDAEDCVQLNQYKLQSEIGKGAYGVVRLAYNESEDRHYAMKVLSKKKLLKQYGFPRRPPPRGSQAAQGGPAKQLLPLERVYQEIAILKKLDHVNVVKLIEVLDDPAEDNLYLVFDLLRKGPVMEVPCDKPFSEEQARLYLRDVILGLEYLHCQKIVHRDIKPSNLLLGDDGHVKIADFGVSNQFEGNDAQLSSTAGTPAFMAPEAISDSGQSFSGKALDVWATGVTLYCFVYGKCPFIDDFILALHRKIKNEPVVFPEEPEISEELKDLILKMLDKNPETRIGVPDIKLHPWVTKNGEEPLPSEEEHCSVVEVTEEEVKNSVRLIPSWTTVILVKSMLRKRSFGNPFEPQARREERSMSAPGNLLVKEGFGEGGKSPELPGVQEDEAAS
Dual specificity testis-specific protein kinase 1 (Homo sapiens), sequence (Q15569 whole entry, looked up): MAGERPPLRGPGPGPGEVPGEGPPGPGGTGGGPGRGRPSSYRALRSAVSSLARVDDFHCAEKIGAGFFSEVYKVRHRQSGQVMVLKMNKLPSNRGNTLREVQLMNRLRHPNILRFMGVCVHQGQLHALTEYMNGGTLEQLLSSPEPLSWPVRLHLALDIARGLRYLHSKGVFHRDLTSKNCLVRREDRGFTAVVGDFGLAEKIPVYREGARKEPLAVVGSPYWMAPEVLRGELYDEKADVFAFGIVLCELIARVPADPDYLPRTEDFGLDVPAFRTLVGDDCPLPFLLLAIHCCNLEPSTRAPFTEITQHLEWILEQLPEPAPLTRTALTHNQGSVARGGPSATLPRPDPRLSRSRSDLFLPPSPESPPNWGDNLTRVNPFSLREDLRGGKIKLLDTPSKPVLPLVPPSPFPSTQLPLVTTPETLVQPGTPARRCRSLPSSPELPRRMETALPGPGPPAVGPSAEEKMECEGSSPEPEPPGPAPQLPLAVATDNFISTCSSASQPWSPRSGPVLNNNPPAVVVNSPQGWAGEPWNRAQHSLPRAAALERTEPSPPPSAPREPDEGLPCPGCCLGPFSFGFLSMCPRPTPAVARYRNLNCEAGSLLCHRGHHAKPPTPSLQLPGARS
Tyrosine-protein kinase TXK (Homo sapiens), sequence (P42681 whole entry, the tested form may be a part): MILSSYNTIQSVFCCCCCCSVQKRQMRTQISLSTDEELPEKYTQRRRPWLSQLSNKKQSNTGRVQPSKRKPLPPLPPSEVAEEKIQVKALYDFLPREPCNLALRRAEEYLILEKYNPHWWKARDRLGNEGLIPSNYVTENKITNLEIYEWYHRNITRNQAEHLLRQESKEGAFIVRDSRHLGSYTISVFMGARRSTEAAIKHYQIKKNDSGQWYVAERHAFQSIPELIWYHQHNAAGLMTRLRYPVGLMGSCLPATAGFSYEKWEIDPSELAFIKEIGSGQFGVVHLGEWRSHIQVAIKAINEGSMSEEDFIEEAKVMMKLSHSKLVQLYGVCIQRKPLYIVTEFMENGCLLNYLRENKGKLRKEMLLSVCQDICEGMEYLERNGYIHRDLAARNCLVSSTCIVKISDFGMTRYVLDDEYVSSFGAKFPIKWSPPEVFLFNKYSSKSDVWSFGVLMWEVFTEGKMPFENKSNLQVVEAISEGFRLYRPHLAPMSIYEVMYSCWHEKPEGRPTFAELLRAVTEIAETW

C[C@H](c1cccc(C#N)c1)n1cc(Cl)cc(C(N)=O)c1=N [(R)-9s]
residual activity [1]: 100% | residual activity [2]: 92% | residual activity [3]: 33% | residual activity [4]: 78% | residual activity [5]: 97% | inhibition [6]: -7.01% | residual activity [7]: 80% | residual activity [8]: 100% | residual activity [9]: 85% | residual activity [10]: 67% | residual activity [11]: 74% | residual activity [12]: 100% | residual activity [13]: 100% | residual activity [14]: 100% | residual activity [15]: 96% | residual activity [16]: 94% | residual activity [17]: 100% | residual activity [18]: 90% | residual activity [19]: 100% | residual activity [20]: 100% | residual activity [21]: 86% | residual activity [22]: 91% | residual activity [23]: 97% | residual activity [24]: 100% | residual activity [25]: 100% | residual activity [26]: 68% | residual activity [27]: 100% | inhibition [28]: 1.55% | residual activity [29]: 96% | residual activity [30]: 85% | residual activity [31]: 98% | residual activity [32]: 94% | residual activity [33]: 87% | residual activity [34]: 98% | residual activity [35]: 82% | inhibition [36]: 0.16% | residual activity [37]: 96% | residual activity [38]: 88% | residual activity [39]: 98% | residual activity [40]: 92% | residual activity [41]: 100% | residual activity [42]: 100% | residual activity [43]: 100%

C[C@@H](c1cccc(C#N)c1)n1cc(Cl)cc(C(N)=O)c1=N [(S)-9s]
residual activity [1]: 100% | residual activity [2]: 100% | residual activity [3]: 68% | residual activity [4]: 88% | residual activity [5]: 86% | inhibition [6]: -4.73% | residual activity [7]: 86% | residual activity [8]: 0% | residual activity [9]: 76% | residual activity [10]: 75% | residual activity [11]: 83% | residual activity [12]: 100% | residual activity [13]: 100% | residual activity [14]: 100% | residual activity [15]: 100% | residual activity [16]: 100% | residual activity [17]: 56% | residual activity [18]: 84% | residual activity [19]: 100% | residual activity [20]: 95% | residual activity [21]: 74% | residual activity [22]: 98% | residual activity [23]: 90% | residual activity [24]: 100% | residual activity [25]: 100% | residual activity [26]: 85% | residual activity [27]: 88% | inhibition [28]: -3.06% | residual activity [29]: 0% | residual activity [30]: 68% | residual activity [31]: 95% | residual activity [32]: 98% | residual activity [33]: 100% | residual activity [34]: 81% | residual activity [35]: 87% | inhibition [36]: 5.78% | residual activity [37]: 74% | residual activity [38]: 89% | residual activity [39]: 100% | residual activity [40]: 100% | residual activity [41]: 100% | residual activity [42]: 100% | residual activity [43]: 96%
